Reference: publication PMC8097466, “In Vivo Targeting of Escherichia coli with Vancomycin-Arginine” (Antimicrobial Agents and Chemotherapy, 2021)
≈ marks a conversion by molar mass, not a printed value. Read-outs that look alike come from different tables or passages of the source.

Tests used:
E. coli UTI89 = experiment: 24-h thigh muscle infection model in neutropenic CD-1 mice; assay type: in vivo, Escherichia coli; settings: for Log10 (group geometric mean ± SD CFU/g): n = 5 to 8
Method: (§1) Using a screening-based strategy, preliminary proof-of-concept studies with V-r employed an abbreviated 9-h thigh muscle infection model in male CD-1 mice rendered neutropenic ([21]). To that end, an E. coli ATCC 25922 isolate was inoculated at 9.7 × 10^4 CFU into both thigh muscles per mouse (n = 5 per experimental group). V-r was administered s.c. every 2 h (110 to 880 mg/kg total dose) starting 1 h postinfection. At 9 h, thigh homogenates were prepared, and CFU were enumerated after culture on CLED (cystine-, lactose-, and electrolyte-deficient) agar. […] In a 24-h thigh muscle infection model, E. coli UTI89 was inoculated at 7.8 × 10^4 CFU into one thigh muscle per mouse (n = 5 to 8 per group) and treated with V-r (total dose, 200 to […]) using an every-6-h dosing regimen from 1 h postinfection. […] Overall, V-r caused an ∼4 to 7.5 log10 reduction in bacterial burden, compared with vehicle control, over the entire dose range.

[1] = Plasma pharmacokinetics after s.c. administration; design: species or system CD-1 mice; settings: mouse, in vivo, sc
Method: Plasma pharmacokinetics (PK) of V-r after subcutaneous (s.c.) administration (20 and 121 mg/kg) was determined in naive male CD-1 mice (n = 3/group) using liquid chromatography-tandem mass spectrometry for analysis with a lower limit of quantitation of 5 ng/ml (Table 3).

[2] = Thermodynamic solubility in saline
S. agalactiae = experiment: MIC determination in alignment with CLSI guidelines; assay type: cell-based; settings: Streptococcus agalactiae
A. baumannii [3] = test system: A. baumannii
[4] = Plasma protein binding, mouse; assay type: in vitro ADME
[5] = test system: human renal proximal tubular epithelial cells; experiment: hRPTEC biomarkers cytotoxicity; settings: primary hRPTEC; cell count, nuclear size, DNA structure, mitochondrial mass, mitochondrial membrane potential, phospholipidosis, glutathione content; fetal bovine serum-deficient media
Excerpt: (§2) Identity was confirmed by ^1H nuclear magnetic resonance and time of flight mass spectrometry, and HCl content was quantified by ion-exchange chromatography.

A. baumannii [6] = experiment: microbe, parasite or virus in culture; settings: Acinetobacter baumannii
[7] = Plasma protein binding, human
human erythrocytes = experiment: Red blood cell lysis; settings: fetal bovine serum-deficient media
Excerpt: as §2

HepG2 = HepG2 cell cytotoxicity; settings: fetal bovine serum-deficient media
Excerpt: as §2

S. pneumoniae = experiment: MIC determination in alignment with CLSI guidelines; assay type: cell-based; settings: Streptococcus pneumoniae
E. coli = experiment: microbe, parasite or virus in culture; settings: Escherichia coli
E. coli ATCC 25922 = experiment: 9-h thigh muscle infection model in neutropenic CD-1 mice; assay type: in vivo, Escherichia coli
Method: as §1

[8] = total dose over 24 h 1,272 mg/kg

O=C(O)c1cn(C2CC2)c2cc(N3CCNCC3)c(F)cc2c1=O [Ciprofloxacin]
Reduction from stasis (E. coli UTI89; 24-h model, ciprofloxacin group of Table 5 (20 mg/kg total)): 1.4 log10
Log10 change from vehicle (CFU/g) (E. coli UTI89; total dose over 24 h 20 mg/kg): −6.39 log10 CFU/g
Log10 (group geometric mean ± SD CFU/g) (E. coli UTI89; total dose over 24 h 20 mg/kg): 3.32 ± 0.14 log10 CFU/g

CN[C@H](CC(C)C)C(=O)N[C@H]1C(=O)N[C@@H](CC(N)=O)C(=O)N[C@H]2C(=O)N[C@H]3C(=O)N[C@H](C(=O)N[C@H](C(=O)N[C@H](CCCNC(=N)N)C(N)=O)c4cc(O)cc(O)c4-c4cc3ccc4O)[C@H](O)c3ccc(c(Cl)c3)Oc3cc2cc(c3O[C@@H]2O[C@H](CO)[C@@H](O)[C@H](O)[C@H]2O[C@H]2C[C@](C)(N)[C@H](O)[C@H](C)O2)Oc2ccc(cc2Cl)[C@H]1O [V-r]
Clearance ([1]; 20 mg/kg): 7.8 mL/min/kg
Vd ([1]; 20 mg/kg): 0.59 L/kg
Clearance ([1]; 121 mg/kg): 5.4 mL/min/kg
Vd ([1]; 121 mg/kg): 0.60 L/kg
solubility thermodynamic ([2]; saline or isotonic, thermodynamic from solid): 373 mg/mL (≈ 232000 µM)

CN[C@H](CC(C)C)C(=O)N[C@H]1C(=O)N[C@@H](CC(N)=O)C(=O)N[C@H]2C(=O)N[C@H]3C(=O)N[C@H](C(=O)N[C@H](C(=O)O)c4cc(O)cc(O)c4-c4cc3ccc4O)[C@H](O)c3ccc(c(Cl)c3)Oc3cc2cc(c3O[C@@H]2O[C@H](CO)[C@@H](O)[C@H](O)[C@H]2O[C@H]2C[C@](C)(N)[C@H](O)[C@H](C)O2)Oc2ccc(cc2Cl)[C@H]1O [Vancomycin]
MIC (S. agalactiae; strain B057, clinical isolate (northwest UK)): 0.5 µg/mL (≈ 0.345 µM)
MIC (S. agalactiae; strain B063, clinical isolate (northwest UK)): 1 µg/mL (≈ 0.69 µM)
MIC (A. baumannii [3]; strain B803, clinical isolate (UK) 2016): 128 µg/mL (≈ 88.3 µM)
MIC (A. baumannii [3]; strain GS2AB1, multiresistant clinical isolate (southern Europe) 2017): 128 µg/mL (≈ 88.3 µM)
MIC (A. baumannii [3]; strain Naval-81, clinical isolate (USA) 2006): 128 µg/mL (≈ 88.3 µM)
PPB (mouse % bound) [4]: 50/50 % bound
hRPTEC biomarkers (CC50) [5]: >100 µM
MIC (A. baumannii [6]): 128 µg/mL (≈ 88.3 µM)
PPB (human % bound) [7]: 50/50 % bound
Red blood cell lysis (CC50) (human erythrocytes): >750 µM
HepG2 cell cytotoxicity (CC50) (HepG2): >750 µM
MIC (S. pneumoniae): 0.5 µg/mL (≈ 0.345 µM)
MIC (S. pneumoniae; ATCC49619): 0.5 µg/mL (≈ 0.345 µM)
MIC (E. coli; ATCC25922, strain ATCC 25922, CLSI susceptible reference strain): 128 µg/mL (≈ 88.3 µM)
MIC (E. coli; ATCCBAA2340, strain ATCC BAA-2340, blaKPC, Ambler A): 128 µg/mL (≈ 88.3 µM)
MIC (E. coli; ATCCBAA2469, strain ATCC BAA-2469, blaNDM-1, Ambler B): 128 µg/mL (≈ 88.3 µM)
MIC (E. coli; BW25113, strain BW25113, parent strain of BW25113ΔacrB::kan mutant): 128 µg/mL (≈ 88.3 µM)
MIC (E. coli; NCTC13441, strain NCTC 13441, uropathogenic ST131, blaCTX-M-15, blaOXA-1, blaTEM-1, Ambler A, D): 128 µg/mL (≈ 88.3 µM)
MIC (E. coli; NCTC13462, strain NCTC 13462, blaCTX-M-2, Ambler A): 128 µg/mL (≈ 88.3 µM)
MIC (E. coli; NCTC13846, strain NCTC 13846, clinical isolate, bacteremia, mcr-1): 64 µg/mL (≈ 44.2 µM)
MIC (E. coli; read-out: MICs, all E. coli and A. baumannii strains tested): 64 to 256 µg/mL (≈ 44.2 to 177 µM)
MIC (E. coli; strain AR055, blaNDM-1, blaCMY-6, blaOXA-1, Ambler B, C, D): 128 µg/mL (≈ 88.3 µM)
MIC (E. coli; strain AR089, blaCMY-2, Ambler C): 128 µg/mL (≈ 88.3 µM)
MIC (E. coli; strain AR0114, blaTEM-1B, blaKPC-3, Ambler A): 256 µg/mL (≈ 177 µM)
MIC (E. coli; strain AR0137, blaNDM-6, blaOXA-9, blaCMY-42, blaCTX-M-15, Ambler B): 128 µg/mL (≈ 88.3 µM)
MIC (E. coli; strain AR0150, blaNDM-5, blaTEM-1B, blaCMY-42, Ambler A, B, C): 128 µg/mL (≈ 88.3 µM)
MIC (E. coli; strain AR0346, mcr-1, ESBL, Ambler A): 256 µg/mL (≈ 177 µM)
MIC (E. coli; strain AR0349, mcr-1, ESBL, Ambler A): 128 µg/mL (≈ 88.3 µM)
MIC (E. coli; strain AR0350, mcr-1): 128 µg/mL (≈ 88.3 µM)
MIC (E. coli; strain AR0493, mcr-1, ESBL, Ambler A): 256 µg/mL (≈ 177 µM)
MIC (E. coli; strain AR0494, mcr-1): 128 µg/mL (≈ 88.3 µM)
MIC (E. coli; strain B096a, clinical isolate (UK) 2016, AmpC, Ambler C): 128 µg/mL (≈ 88.3 µM)
MIC (E. coli; strain B808, clinical isolate (UK) 2016, blaTEM-1, blaCTX-M-15, Ambler A): 256 µg/mL (≈ 177 µM)
MIC (E. coli; strain ExPEC H5, clinical isolate (UK)): 128 µg/mL (≈ 88.3 µM)
MIC (E. coli; strain H4/5, clinical isolate, blaTEM-1, blaCTX-M-15, Ambler A): 256 µg/mL (≈ 177 µM)
MIC (E. coli; strain IR3, clinical isolate, blaNDM-1, Ambler B): 128 µg/mL (≈ 88.3 µM)
MIC (E. coli; strain IR45, clinical isolate, blaNDM-1, Ambler B): 128 µg/mL (≈ 88.3 µM)
MIC (E. coli; strain IR57, clinical isolate, blaNDM-1, Ambler B): 256 µg/mL (≈ 177 µM)
MIC (E. coli; strain JW0451-2, BW25113ΔacrB::kan, AcrB-deficient efflux pump mutant): 128 µg/mL (≈ 88.3 µM)
MIC (E. coli; strain Swiss 2 (AF45), clinical isolate (South Africa) ST101, mcr-1): 128 µg/mL (≈ 88.3 µM)
MIC (E. coli; strain Swiss 13, clinical isolate (France) ST69, mcr-1): 128 µg/mL (≈ 88.3 µM)
MIC (E. coli; strain Swiss 15, clinical isolate (Switzerland) ST446, mcr-1, blaCTX-M, Ambler A): 128 µg/mL (≈ 88.3 µM)
MIC (E. coli; strain UTI89, clinical isolate from patient with acute bladder infection): 128 µg/mL (≈ 88.3 µM)
Impact on E. coli burden (E. coli ATCC 25922; dose equivalent to the highest dose of V-r, 9 h): failed to significantly impact E. coli burden
Log10 change from vehicle (CFU/g) (E. coli ATCC 25922; total dose over 9 h 800 mg/kg): −0.51 log10 CFU/g
Log10 (group geometric mean ± SD CFU/g) (E. coli ATCC 25922; total dose over 9 h 800 mg/kg, n = 5): 6.60 ± 0.66 log10 CFU/g
Log10 change from vehicle (CFU/g) (E. coli UTI89; [8]): −1.23 log10 CFU/g
Log10 (group geometric mean ± SD CFU/g) (E. coli UTI89; [8]): 8.48 ± 1.31 log10 CFU/g
TD solubility in saline ([2]; thermodynamic, in saline): > 50 mg/mL
